Data: PMC9055250, “Design, synthesis, and biological evaluation of new 6,N^2-diaryl-1,3,5-triazine-2,4-diamines as anticancer agents selectively targeting triple negative breast cancer cells” (RSC Advances, 2020)
Like-named read-outs stand apart in the source and are kept apart here.

Columns and labels:
[1] = test system: MDA-MB231 breast cancer cells; test: MTT in vitro cytotoxicity assay, MDA-MB231; assay type: cell-based; conditions: for viability at 10 µM / GI50: Homo sapiens, MDA-MB-231; for viability at 10 µM: read-out: Cell viability (%) MDA-MB231
Procedure: (§1) The synthesized compounds were tested against three breast tumor cell lines (MDA-MB231, SKBR-3 and MCF-7) and epithelial breast cell line (MCF-10A) by the MTT colorimetric assay.[29,30] All cells were obtained from the American Type Culture Collection. The cancerous cell lines were grown in Dulbecco's modified eagle medium (DMEM) supplemented with 10% fetal bovine serum (FBS) and 1% pen-strep antibiotic. The MCF-10A human epithelial breast cell line was grown in the complete mammary epithelial growth medium containing horse serum 5%, epithelial growth factor 20 ng mL^−1, hydrocortisone […], cholera toxin 100 ng mL^−1, insulin 10 μg mL^−1, and pen-step antibiotic.[31] For the cytotoxic assay, 20 to 75 × 10^3 cells per mL (based on the doubling time for each cell line) were seeded in 96-well plates and the plates were incubated overnight in a humidified air atmosphere at 37 °C in 5% CO2 incubator.
(§2) The cells were then treated with compounds at different concentrations. After 72 h of incubation, the MTT (0.5 mg mL^−1) was added to wells, followed by 4 h of incubation. The culture medium was then removed and DMSO (100 μL per well) was added and the absorbance values were measured at 570 nm using the multi-well Tecan NanoQuant, Infinite m200 Pro plate reader. Growth inhibitory values (GI50) were calculated using GraphPad Prism 7 (GraphPad Software, San Diego, USA) by nonlinear regression analysis. Three independent experiments were carried out and the data was expressed in mean ± standard deviation (SD). The concentration–response curves used for the GI50 calculation are available in ESI. ^†

[2] = test system: SKBR-3 breast cancer cells; test: MTT in vitro cytotoxicity assay, SKBR-3; assay type: cell-based; conditions: Homo sapiens; for viability at 10 µM: SK-BR-3, 10 μM, 72 h, read-out: Cell viability (%) SKBR-3; for GI50: SK-BR-3, 72 h, read-out: GI50 ± SD SKBR-3
Procedure: as §1, §2

[3] = test system: MCF-7 breast cancer cells; test: MTT in vitro cytotoxicity assay, MCF-7; assay type: cell-based; conditions: Homo sapiens; for viability at 10 µM: MCF7, 10 μM, 72 h, read-out: Cell viability (%) MCF-7; for GI50: MCF7, 72 h, read-out: GI50 ± SD MCF-7
Procedure: as §1, §2

[4] = test system: MCF-10A human epithelial breast cell line; test: MTT in vitro cytotoxicity assay, MCF-10A; assay type: cell-based; conditions: 72 h, read-out: GI50 ± SD MCF-10A
Procedure: as §1, §2

[5] = test system: MDA-MB231 breast cancer cells; test: Time-dependent cytotoxicity (MTT); assay type: cell-based; conditions: for inhibition at 0.125 µM / growth inhibition at 125 nM, 12 h: MDA-MB231, 125 nM
Procedure: MDA-MB231 breast cancer cells were grown in DMEM supplemented with 10% FBS and 1% pen-strep antibiotic. The cells were seeded in 96-well plates (20 × 10^3 cells per mL) and the plates were incubated overnight in a humidified air atmosphere at 37 °C in 5% CO2 incubator. The cells were then treated with compounds 16 or 18 in concentrations ranging from 0.2 nM to 125 nM for 12, 24, 48, and 72 h. After specified time for each experiment, MTT (0.5 mg mL^−1) was added to wells, followed by 4 h of incubation. The culture medium was then removed and DMSO (100 μL per well) was added and the absorbance values were measured at 570 nm using the multi-well Tecan NanoQuant, Infinite m200 Pro plate reader. GI50 values were calculated using GraphPad Prism 7 (GraphPad Software, San Diego, USA) by nonlinear regression analysis. All the time-dependent experiments at different times were carried out using the same passage of MDA-MB231 cells. Three independent experiments were carried out and the data were expressed in mean ± standard deviation (SD).

MDA-MB231 cells [6] = test: Acridine orange/propidium iodide double staining, fluorescence microscopy; assay type: cell-based; conditions: MDA-MB231, 24 h after treatment; 16 at 125 and 250 nM, 18 at 2.5 and 5 nM
Procedure: Fluorescence microscopy was used to visualize the apoptosis in cancer cells with AO/PI staining.[20] MDA-MB231 cells were grown in 6-well plate (5 × 10^5 cells per well). […] One of the six wells was treated with 1% DMSO and served as a negative control, another well treated with methotrexate served as a positive control. After 24 h of incubation, the wells were washed with phosphate buffered saline (PBS) three times and 100 μL of AO (100 μg mL^−1 in PBS) and 25 μL of PI (100 μg mL^−1 in PBS) in 1 mL of media were added to each well. The plate was then observed under a motorized inverted fluorescent microscope (Eclipse Ti2-E, Nikon). Three independent experiments at each concentration were carried out.

MDA-MB231 cells [7] = test: Live cell imaging with AO/PI; assay type: cell-based; conditions: MDA-MB231, 10 μM, 4 h
Procedure: MDA-MB231 cells (1 × 10^6 cells) were seeded in a Petri dish and incubated overnight in a humidified air atmosphere at 37 °C in 5% CO2 incubator. Then, the Petri dish was washed with PBS three times and 300 μL of AO (100 μg mL^−1 in PBS) and 75 μL of PI (100 μg mL^−1 in PBS) in 3 mL of media were added to the Petri dish. The cells were treated with 10 μM of compound 18 and the dish was then transferred to motorized inverted fluorescent microscope (Eclipse Ti2-E, Nikon). The pictures were taken every 10 minutes for 4 h and intercalated into video (see ESI ^†).

[8] = 72 h, MTT, read-out: GI50 ± SD MDA-MB231
[9] = MDA-MB231, calculated from GI50, read-out: Experimental pGI50 (converted)
[10] = Homo sapiens, MDA-MB-231, 12 h, read-out: growth inhibition at 125 nM, 12 h
[11] = Homo sapiens, MDA-MB-231, MDA-MB231, 72 h, read-out: GI50 ± SD, 72 h
[12] = Homo sapiens, MDA-MB-231, MDA-MB231, 24 h, concentration used in Fig. 3

SMILES	viability at 10 µM ([1]; 72 h, MTT) [%]	GI50 [1, 8] [µM]	GI50 [1, 9] [µM]	viability at 10 µM [2] [%]	GI50 [2] [µM]	viability at 10 µM [3] [%]	GI50 [3] [µM]	GI50 [4] [µM]	inhibition at 0.125 µM [5, 10] [%]	GI50 [5, 11] [µM]	growth inhibition at 125 nM, 12 h ([5]; 12 h)	cell morphology, AO/PI double staining (MDA-MB231 cells [6])	melting point [°C]	further results
COc1cc(-c2nc(N)nc(Nc3ccc(Cl)cc3)n2)cc(OC)c1OC [Compound 16, N ^2-(4-Chlorophenyl)-6-(3,4,5-trimethoxyphenyl)-1,3,5-triazine-2,4-diamine]	20	0.007 ± 1e-05	0.00708	48	0.3 ± 0.04	52	12.5 ± 0.2	> 20	17	0.007 ± 0.0006	no significant inhibition of the cell growth	signs of apoptosis	209 to 211	inhibition at 0.125 µM ([5]; Homo sapiens, MDA-MB-231, 24 h, read-out: growth inhibition at 125 nM, 24 h): 61%; inhibition at 0.125 µM ([5]; Homo sapiens, MDA-MB-231, 48 h, read-out: growth inhibition at 125 nM, 48 h): 75%
COc1cc(-c2nc(N)nc(Nc3ccc(C)cc3)n2)cc(OC)c1OC [Compound 18, N ^2-(4-Methylphenyl)-6-(3,4,5-trimethoxyphenyl)-1,3,5-triazine-2,4-diamine]	14	0.001 ± 1e-05	0.002	37	0.21 ± 0.01	62	> 20	> 20	15	0.001 ± 2e-05	no significant inhibition of the cell growth	signs of apoptosis		fold more active than methotrexate ([1]; MDA-MB231): 10 fold; fold more potent than nilotinib ([1]; MDA-MB231): 40 fold; IC20 [5, 12]: 0.0025 µM; IC50 [5, 12]: 0.005 µM; GI50 ([5]; Homo sapiens, MDA-MB-231, MDA-MB231, 24 h, read-out: GI50 ± SD, 24 h): 0.005 ± 0.0001 µM; GI50 ([5]; Homo sapiens, MDA-MB-231, MDA-MB231, 48 h, read-out: GI50 ± SD, 48 h): 0.004 ± 0.0003 µM; morphological changes in live cell imaging (MDA-MB231 cells [7]): inducing apoptosis
COc1ccccc1Nc1nc(N)nc(-c2cccc(F)c2)n1 [Compound 1, 6-(3-Fluorophenyl)-N^2-(2-methoxyphenyl)-1,3,5-triazine-2,4-diamine]	49	17.3 ± 0.6	17.4	84	> 20	88	> 20	> 20					140 to 142	
COc1cc(-c2nc(N)nc(Nc3ccccc3)n2)cc(OC)c1OC [Compound 10, N ^2-Phenyl-6-(3,4,5-trimethoxyphenyl)-1,3,5-triazine-2,4-diamine]	14	9.7 ± 0.6	9.77	37	17.2 ± 0.4	62	> 20	> 20					111 to 113	
